Laboratory results taken from PubChem BioAssay (NCI).
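GI50: concentration for 50% inhibition of growth. TGI denotes the concentration required for complete inhibition of growth.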

Columns and labels:
Experiment in all cases: inhibition of tumour cell growth, NCI panel, 384-well format
NCI-H522 lung = system: NCI-H522 lung
M14 melanoma = system: M14 melanoma
OVCAR-8 ovarian = system: OVCAR-8 ovarian
U251 glioblastoma = system: U251 glioblastoma
A498 renal = system: A498 renal
OVCAR-3 ovarian = system: OVCAR-3 ovarian
COLO 205 colon = system: COLO 205 colon
EKVX NSCLC = system: EKVX NSCLC
HOP-62 NSCLC = system: HOP-62 NSCLC
SF-539 CNS = system: SF-539 CNS
LOX IMVI melanoma = system: LOX IMVI melanoma
HL-60(TB) leukemia = system: HL-60(TB) leukemia
NCI-H460 NSCLC = system: NCI-H460 NSCLC
SK-MEL-2 melanoma = system: SK-MEL-2 melanoma
SK-MEL-5 melanoma = system: SK-MEL-5 melanoma
SNB-75 CNS = system: SNB-75 CNS
TK-10 renal = system: TK-10 renal
K-562 leukemia = system: K-562 leukemia
ACHN renal = system: ACHN renal
SNB-19 CNS = system: SNB-19 CNS
SR leukemia = system: SR leukemia
786-0 renal = system: 786-0 renal
HCT-15 colon = system: HCT-15 colon
CAKI-1 renal = system: CAKI-1 renal
SF-295 CNS = system: SF-295 CNS
DU-145 prostate = system: DU-145 prostate
HS 578T breast = system: HS 578T breast
NCI-H322M lung = system: NCI-H322M lung
CCRF-CEM leukemia = system: CCRF-CEM leukemia
KM12 colon = system: KM12 colon
MALME-3M melanoma = system: MALME-3M melanoma
UACC-62 melanoma = system: UACC-62 melanoma
SF-268 CNS = system: SF-268 CNS
MDA-MB-468 breast = system: MDA-MB-468 breast
A549 NSCLC = system: A549 NSCLC
NCI-H23 lung = system: NCI-H23 lung
OVCAR-4 ovarian = system: OVCAR-4 ovarian
HT29 colon = system: HT29 colon
HCC-2998 colon = system: HCC-2998 colon
T-47D breast = system: T-47D breast
MOLT-4 leukemia = system: MOLT-4 leukemia
SN12C renal = system: SN12C renal
OVCAR-5 ovarian = system: OVCAR-5 ovarian
NCI-H226 lung = system: NCI-H226 lung
BT-549 breast = system: BT-549 breast
MCF7 breast = system: MCF7 breast
SK-MEL-28 melanoma = system: SK-MEL-28 melanoma

CC(C)[C@](O)(c1ccc2cc(OC(F)F)c(OC(F)F)cc2c1)c1cn[nH]n1
GI50 (NCI-H522 lung): 13.6 µM
TGI (NCI-H522 lung): 27.7 µM
GI50 (M14 melanoma): 17.6 µM
TGI (M14 melanoma): 31.6 µM
GI50 (OVCAR-8 ovarian): 16.3 µM
TGI (OVCAR-8 ovarian): 30 µM
GI50 (U251 glioblastoma): 16.7 µM
TGI (U251 glioblastoma): 30.5 µM
GI50 (A498 renal): 17.5 µM
TGI (A498 renal): 31.8 µM
GI50 (OVCAR-3 ovarian): 13 µM
TGI (OVCAR-3 ovarian): 25.8 µM
GI50 (COLO 205 colon): 20.3 µM
TGI (COLO 205 colon): 39.9 µM
GI50 (EKVX NSCLC): 13.1 µM
TGI (EKVX NSCLC): 28.8 µM
GI50 (HOP-62 NSCLC): 16.3 µM
TGI (HOP-62 NSCLC): 30 µM
GI50 (SF-539 CNS): 16.8 µM
TGI (SF-539 CNS): 30.5 µM
GI50 (LOX IMVI melanoma): 17.3 µM
TGI (LOX IMVI melanoma): 31.2 µM
GI50 (HL-60(TB) leukemia): 6.11 µM
TGI (HL-60(TB) leukemia): 16.1 µM
GI50 (NCI-H460 NSCLC): 16.6 µM
TGI (NCI-H460 NSCLC): 30.5 µM
GI50 (SK-MEL-2 melanoma): 19.4 µM
TGI (SK-MEL-2 melanoma): 33.5 µM
GI50 (SK-MEL-5 melanoma): 13.1 µM
TGI (SK-MEL-5 melanoma): 25.9 µM
GI50 (SNB-75 CNS): 14.9 µM
TGI (SNB-75 CNS): 29.5 µM
GI50 (TK-10 renal): 14.7 µM
TGI (TK-10 renal): 30.2 µM
GI50 (K-562 leukemia): 11 µM
TGI (K-562 leukemia): 23.5 µM
GI50 (ACHN renal): 25.5 µM
TGI (ACHN renal): 59.8 µM
GI50 (SNB-19 CNS): 17.8 µM
TGI (SNB-19 CNS): 32.2 µM
GI50 (SR leukemia): 3.91 µM
TGI (SR leukemia): 13.6 µM
GI50 ([…]-0 renal): 16.2 µM
TGI (786-0 renal): 30.3 µM
GI50 (HCT-15 colon): 14.4 µM
TGI (HCT-15 colon): 27.8 µM
GI50 (CAKI-1 renal): 15.7 µM
TGI (CAKI-1 renal): 32.3 µM
GI50 (SF-295 CNS): 15 µM
TGI (SF-295 CNS): 28.7 µM
GI50 (DU-145 prostate): 16.5 µM
TGI (DU-145 prostate): 32.8 µM
GI50 (HS 578T breast): 12.3 µM
TGI (HS 578T breast): 24.8 µM
GI50 (NCI-H322M lung): 17.3 µM
TGI (NCI-H322M lung): 33 µM
GI50 (CCRF-CEM leukemia): 12.3 µM
TGI (CCRF-CEM leukemia): 24.8 µM
GI50 (KM12 colon): 15 µM
TGI (KM12 colon): 28.6 µM
GI50 (MALME-3M melanoma): 16.7 µM
TGI (MALME-3M melanoma): 30.9 µM
GI50 (UACC-62 melanoma): 16.4 µM
TGI (UACC-62 melanoma): 30 µM
GI50 (SF-268 CNS): 16.5 µM
TGI (SF-268 CNS): 30.6 µM
GI50 (MDA-MB-468 breast): 10.3 µM
TGI (MDA-MB-468 breast): 27.7 µM
GI50 (A549 NSCLC): 17.4 µM
TGI (A549 NSCLC): 44.8 µM
GI50 (NCI-H23 lung): 14.8 µM
TGI (NCI-H23 lung): 29.6 µM
GI50 (OVCAR-4 ovarian): 13.6 µM
TGI (OVCAR-4 ovarian): 33.1 µM
GI50 (HT29 colon): 16 µM
TGI (HT29 colon): 29.8 µM
GI50 (HCC-2998 colon): 15.4 µM
TGI (HCC-2998 colon): 28.9 µM
GI50 (T-47D breast): 10.9 µM
TGI (T-47D breast): 38.2 µM
GI50 (MOLT-4 leukemia): 11.3 µM
TGI (MOLT-4 leukemia): 23.5 µM
GI50 (SN12C renal): 14.9 µM
TGI (SN12C renal): 28.2 µM
GI50 (OVCAR-5 ovarian): 17.3 µM
TGI (OVCAR-5 ovarian): 38.2 µM
GI50 (NCI-H226 lung): 21 µM
TGI (NCI-H226 lung): 36 µM
GI50 (BT-549 breast): 14.6 µM
TGI (BT-549 breast): 27.9 µM
GI50 (MCF7 breast): 13 µM
TGI (MCF7 breast): 27.5 µM
GI50 (SK-MEL-28 melanoma): 17.2 µM
TGI (SK-MEL-28 melanoma): 31.5 µM
